Assay results reported in patent US20240010726A1, “LFA-1 SIGNALLING MEDIATOR FOR USE IN CANCER THERAPY” (Universität Basel, priority 2020, published 2024).

Tests used:
human naïve CD8 T cells = test: Metabolic flux analysis, glycolytic switch of naïve CD8 T cells; type: cell-based; settings: anti-CD3 or anti-CD3/anti-CD28 Ab; 0 mM vs 1.2 mM Mg^2+
Method: FIG. 2: Extracellular magnesium promotes memory-specific activation via LFA-1. Glycolytic switch of human EM CD8 T cells (a) and naïve CD8 T cells (b) subsets upon injection of anti-CD3 Ab only, or anti-CD3 and anti-CD28 Ab, was assessed by metabolic flux analysis in medium containing either 1.2 mM Mg^2+, 0 mM Mg^2+, or medium which was reconstituted from 0 mM to 1.2 mM Mg^2+ immediately prior to activation (0→1.2 mM Mg^2+). (a) Results for human effector memory (EM) and (b) for human naïve CD8 T cells. Glycolytic switch was quantified by subtracting […] measurements. (c) Flow cytometric analysis of surface activation markers on human EM CD8 T cells 24 hours after activation by plate-bound anti-CD3 Ab and soluble anti-CD28 Ab, in 1.2 mM and 0 mM Mg^2+ media, respectively. (d) Abundance of inflammatory cytokines in corresponding EM CD8 T cell culture supernatants, determined by CBA. (e) CD11a (LFA-1) surface expression on human naïve and EM CD8 T cells as well PHA T cell blasts. Flow cytometry-based assessment of total LFA-1 expression assessed by mAb TS2/4 (f), closed conformation of αL by mAb HI111 (g), extended conformation of LFA-1 by mAb Kim127 (h), open head-piece conformation of LFA-1 by mAb m24 (i), phosphorylation of focal adhesion kinase (FAK) […] as well TNF expression (k)±TCR-induced activation in different extracellular Mg^2+ concentrations. […]

[1] = test system: murine WT and LFA-1^−/− CTLs; test: Glycolytic switch of murine WT and LFA-1−/− CTLs; type: cell-based; settings: anti-CD3/28 Ab; 0 mM vs 1.2 mM Mg^2+
Method: FIG. 3: Magnesium regulates LFA-1 mediated T cell activation and cytotoxicity as well BiTE- and CAR T-cell functionality. (a) Glycolytic switch of murine WT and LFA-1^-/- CTLs upon injection of anti-CD3/28 Ab in medium containing 1.2 mM Mg^2+ and 0 mM Mg^2+, presented as quantification of summarized data with n=4 mice. (b) Calcium flux in WT and LFA-1^-/- Jurkat T cells stimulated with anti-CD3 Ab in 1.2 mM and 0 mM Mg^2+ medium, respectively. Cells were loaded with Fluo4, and signal intensity as recorded by plate reader, was normalized to unstimulated baseline values. […] Quantified results of n=3 mice with 3 technical replicates each. […] The effector to target cell ratio was 3:1. Results are quantified of n=3 mice with 3 technical replicates each. (e) Representative CD11a (LFA-1) surface expression on human naïve and EM CD8 T cells, PHA T cell blasts and REP T cells, assessed by flow cytometry. […] The effector to target cell ratio was 1:1. Data is presented as quantified results of n=5 healthy donors (f, g, h), n=3 healthy donors with 2 technical replicates each or n=1 healthy donor with 4 technical replicates (j). […] Data is presented as quantified results of n=1 healthy donor with 4 technical replicates. […] (p) Abundance of IFNγ in cell culture supernatants corresponding to the conditions depicted in (o) at 24 hours was determined by ELISA (n=8, 3 independent experiments). […]

## [Mg+2] [Mg^2+, Magnesium]
Human naïve CD8 T cells
  Glycolytic switch (ECAR) of naïve CD8 T cells: no impaired activation-induced upregulation of glycolysis
[1]
  Glycolytic switch of LFA-1^−/− CTLs: independent from extracellular Mg^2+ concentrations
  Glycolytic switch of WT CTLs: reduced glycolytic switching
